The values below come from ChEMBL document CHEMBL1146315, “Synthesis and evaluation of unsaturated caprolactams as interleukin-1beta converting enzyme (ICE) inhibitors” (Bioorg Med Chem, 2007).

Data set [1] relates to THP-1. As to the kind of experiment: Inhibition of IL1-beta production in THP1 cells. To be noted: Homo sapiens. It is filed as functional, cell-based.
The target in data set [2] is T1, Caspase-1 (Homo sapiens, UniProt P29466).
T1 sequence (P29466 whole entry): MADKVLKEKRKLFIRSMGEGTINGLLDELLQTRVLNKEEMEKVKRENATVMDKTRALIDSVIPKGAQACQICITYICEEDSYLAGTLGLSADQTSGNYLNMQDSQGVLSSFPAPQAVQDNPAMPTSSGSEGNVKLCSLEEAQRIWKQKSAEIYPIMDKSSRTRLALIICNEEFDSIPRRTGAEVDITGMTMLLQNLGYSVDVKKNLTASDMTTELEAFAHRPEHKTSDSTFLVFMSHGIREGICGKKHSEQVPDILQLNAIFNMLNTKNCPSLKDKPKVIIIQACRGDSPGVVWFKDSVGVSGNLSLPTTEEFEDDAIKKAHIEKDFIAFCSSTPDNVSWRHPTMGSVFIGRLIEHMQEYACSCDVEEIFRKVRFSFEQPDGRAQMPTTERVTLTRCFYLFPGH
Briefly: Inhibition of ICE.

Data set [3] can be described thus: Half life in Sprague-Dawley rat at 30 mg/kg, po. The format is ADME, organism-based. On the set-up: dose 30 mg/kg, route oral. To be noted: in vivo.
Data set [4] deals with Rattus norvegicus. As to the kind of experiment: (§1) AUC (0 to infinity) in Sprague-Dawley rat at 30 mg/kg, po. It is filed as ADME, organism-based, Plasma. Details: time infinity, dose 30 mg/kg, route oral. As to conditions: in vivo.
A short description of data set [5]: Cmax in Sprague-Dawley rat at 30 mg/kg, po. The format is ADME, organism-based. On the set-up: dose 30 mg/kg, route oral. To be noted: in vivo.
Data set [6] is described as follows: Cmax in Sprague-Dawley rat at 30 mg/kg, iv. To be noted: in vivo. On the set-up: dose 30 mg/kg, route intravenous. The format is ADME, organism-based.
The nature of data set [7]: Half life in Sprague-Dawley rat at 30 mg/kg, iv. It is filed as ADME, organism-based. Details: dose 30 mg/kg, route intravenous. To be noted: in vivo.
Data set [8] relates to Rattus norvegicus. As to the kind of experiment: AUC (0 to infinity) in Sprague-Dawley rat at 30 mg/kg, iv. It is filed as ADME, organism-based, Plasma. On the set-up: time infinity, dose 30 mg/kg, route intravenous. To be noted: in vivo.
Data set [9] concerns the target T2, Caspase-3 (Homo sapiens, UniProt P42574).
T2 sequence (P42574 whole entry): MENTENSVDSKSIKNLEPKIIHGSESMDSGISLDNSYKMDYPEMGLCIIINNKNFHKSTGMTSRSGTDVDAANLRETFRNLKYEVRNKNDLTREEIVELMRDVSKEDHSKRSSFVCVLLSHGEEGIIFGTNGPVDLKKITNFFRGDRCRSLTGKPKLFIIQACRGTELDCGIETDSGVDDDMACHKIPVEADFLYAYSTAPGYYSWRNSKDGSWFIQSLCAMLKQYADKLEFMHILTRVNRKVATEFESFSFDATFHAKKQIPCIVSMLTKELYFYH
Briefly: Inhibition of caspase 3.

The subject of data set [10] is Rattus norvegicus. Briefly: (§2) Bioavailability in Sprague-Dawley rat at 30 mg/kg, po. As to conditions: in vivo. The format is ADME, organism-based.
The target in data set [11] is Caspase-8 (Homo sapiens, UniProt Q14790). As to the kind of experiment: Inhibition of caspase 8.
Caspase-8, sequence (Q14790 217-374 limits assumed): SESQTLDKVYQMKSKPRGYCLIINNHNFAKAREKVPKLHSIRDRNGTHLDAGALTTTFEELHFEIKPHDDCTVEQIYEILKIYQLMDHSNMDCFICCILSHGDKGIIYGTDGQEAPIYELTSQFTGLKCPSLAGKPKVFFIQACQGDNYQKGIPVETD
Caspase-8, sequence (Q14790 385-479 limits assumed): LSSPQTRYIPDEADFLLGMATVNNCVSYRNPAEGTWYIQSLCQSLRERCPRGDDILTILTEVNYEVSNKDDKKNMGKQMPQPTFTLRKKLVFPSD
A short description of data set [12]: as §1. The format is ADME, organism-based, Plasma. Details: time infinity, dose 30 mg/kg, route oral. As to conditions: Sprague-Dawley, plasma.
Data set [13] can be described thus: as §2. The format is ADME, organism-based. To be noted: Sprague-Dawley, in vivo.

As a reminder, the IC50 is the midpoint of a concentration-inhibition curve. Low values mean greater potency in that assay, high ones weaker potency in that assay. `O=C[C@H](CC(=O)O)NC(=O)[C@@H]1COC[C@@H]2C/C=C\C[C@H](NC(=O)c3nccc4ccccc34)C(=O)N21`: the IC50 in data set [1] amounted to 182 nM; in data set [2], 3 nM.
In data set [2], `O=C(CN1CC/C=C\C[C@H](NC(=O)c2nccc3ccccc23)C1=O)N[C@H]1CC(=O)OC1O` (some centres undefined) returned an IC50 of 77 nM.
The term half-life denotes the time in which the quantity being followed falls by half. Lower therefore signals fast loss. The term AUC denotes concentration integrated over time. Higher therefore signals more exposure. Usually Cmax stands for the maximum level reached in the sampled fluid or tissue. For `O=C(CN1CC=CC[C@H](NC(=O)c2ccc3ccccc3c2)C1=O)N[C@H]1CC(=O)OC1O` (some centres undefined), the half-life in [3] is 1.3 h; in data set [7] it was 0.2 h. Moreover, the AUC in data set [4] stood at 320 ng·h/mL; in data set [8], 1970 ng·h/mL. For the same compound, the Cmax in [5] worked out at 264 ng/mL; in [6], 6790 ng/mL. In addition, the IC50 in data set [9] was greater than 10000 nM; in data set [11], 2160 nM; in data set [1], 100 nM; in data set [2], 14 nM. In addition, the F in data set [10] turned out to be 2%.
On to `O=C(CN1CC=CC[C@H](NC(=O)c2cc3ccccc3s2)C1=O)N[C@H]1CC(=O)OC1O` (some centres undefined), for which the IC50 in data set [9] was greater than 10000 nM; in [11], 1450 nM; in data set [1], 712 nM; in data set [2], 20 nM.
On to `O=C(CN1CC=CC[C@H](NC(=O)c2ccccc2)C1=O)N[C@H]1CC(=O)OC1O` (some centres undefined), for which the IC50 in [9] was greater than 10000 nM; in data set [11], 4200 nM; in data set [1], 1080 nM; in data set [2], 168 nM.
Taken in the same sequence, the figures for `O=C(CN1CC=CC[C@H](NC(=O)c2cccc(Cl)c2)C1=O)N[C@H]1CC(=O)OC1O` (some centres undefined) were greater than 10000 nM, 1180 nM, 383 nM and 29 nM.
For `O=C(CN1CC=CC[C@H](NC(=O)c2cc(Cl)ccc2Cl)C1=O)N[C@H]1CC(=O)OC1O` (some centres undefined) the same measures were greater than 10000 nM, 554 nM, 71 nM and 15 nM.
Regarding `C[C@H](C(=O)N[C@H]1CC(=O)OC1O)N1CC=CC[C@H](NC(=O)c2ccc3ccccc3c2)C1=O` (some centres undefined), the IC50 is greater than 10000 nM in data set [9], 537 nM in data set [11], 871 nM in data set [1] and 13 nM in [2].
Taken in the same sequence, the figures for `CC1=CC[C@H](NC(=O)c2ccc3ccccc3c2)C(=O)N(CC(=O)N[C@H]2CC(=O)OC2O)C1` (some centres undefined) were greater than 10000 nM, 2690 nM, 153 nM and 19 nM.
Usually AUC(0-inf) stands for total exposure, with the tail of the curve extrapolated. Read a low AUC(0-inf) as low exposure. In turn, `CCOC1OC(=O)C[C@@H]1NC(=O)CN1CC(CNC(=O)c2ccc(OC)cc2)=CC[C@H](NC(=O)c2ccc3ccccc3c2)C1=O` (some centres undefined) gave a half-life in [3] of 7.1 h. The same compound registered an AUC(0-inf) in [12] of 30 ng·h/mL. For the same compound, the concentration in data set [5] peaked (Cmax) at 9 ng/mL.
On to `COc1ccccc1C(=O)NCC1=CC[C@H](NC(=O)c2ccc3ccccc3c2)C(=O)N(CC(=O)N[C@H]2CC(=O)OC2O)C1` (some centres undefined), for which the IC50 in data set [9] amounted to 3370 nM; in data set [11], 887 nM; in [1] it was 1340 nM; in data set [2], 2 nM.
Taken in the same sequence, the figures for `O=C(CN1CC(CSCc2ccccc2)=CC[C@H](NC(=O)c2ccc3ccccc3c2)C1=O)N[C@H]1CC(=O)OC1O` (some centres undefined) were greater than 10000 nM, 1610 nM, 1280 nM and 8 nM.
Taken in the same sequence, the figures for `COc1ccc(C(=O)NCC2=CC[C@H](NC(=O)c3ccc4ccccc4c3)C(=O)N(CC(=O)N[C@H]3CC(=O)OC3O)C2)cc1` (some centres undefined) were 1130 nM, 471 nM, 95 nM and 1 nM.
As a reminder, the bioavailability is the share of a dose that reaches the circulation, judged against a reference dose that is usually intravenous. For `CCOC1OC(=O)C[C@@H]1NC(=O)CN1CC=CC[C@H](NC(=O)c2ccc3ccccc3c2)C1=O` (some centres undefined), in [3], the half-life was 3.4 h. Besides, the AUC(0-inf) in data set [12] is 21000 ng·h/mL. The same compound had a maximum concentration (Cmax) in data set [5] of 9360 ng/mL. Moreover, the bioavailability in data set [13] was greater than 90%.
The compound `CCOC1OC(=O)C[C@@H]1NC(=O)[C@H](C)N1CC=CC[C@H](NC(=O)c2ccc3ccccc3c2)C1=O` (some centres undefined) showed a half-life in data set [3] of 5.1 h. This compound also yielded an AUC(0-inf) in data set [12] of 4530 ng·h/mL. Moreover, the Cmax in data set [5] was determined as 720 ng/mL.
Take `C[C@@H](C(=O)N[C@H]1CC(=O)OC1O)N1CC=CC[C@H](NC(=O)c2ccc3ccccc3c2)C1=O` (some centres undefined): the IC50 turned out to be 7510 nM in data set [9], 162 nM in [11], 36 nM in [1] and 1 nM in data set [2].
`O=C[C@H](CC(=O)O)NC(=O)[C@@H]1CC[C@@H]2C/C=C\C[C@H](NC(=O)c3nccc4ccccc34)C(=O)N21`: the IC50 in [1] was 188 nM; in [2], 4 nM.
For `O=C(CN1CC=CC[C@H](NC(=O)c2nccc3ccccc23)C1=O)N[C@H]1CC(=O)OC1O` (some centres undefined), the IC50 in data set [9] was greater than 10000 nM; in data set [11], 2930 nM; in data set [1] it was 586 nM; in data set [2] it was 27 nM.
Taken in the same sequence, the figures for `O=C(CN1CC(CNC(=O)c2ccccc2)=CC[C@H](NC(=O)c2ccc3ccccc3c2)C1=O)N[C@H]1CC(=O)OC1O` (some centres undefined) were 1700 nM, 1080 nM, 466 nM and 2 nM.
For `O=C(CN1CC=CC[C@H](NC(=O)c2cccc(C(F)(F)F)c2)C1=O)N[C@H]1CC(=O)OC1O` (some centres undefined) the same measures were greater than 10000 nM, 1960 nM, 554 nM and 11 nM.
Regarding `COc1cccc(C(=O)NCC2=CC[C@H](NC(=O)c3ccc4ccccc4c3)C(=O)N(CC(=O)N[C@H]3CC(=O)OC3O)C2)c1` (some centres undefined), the IC50 in data set [9] was 1080 nM; in data set [11] it was 448 nM; in [1], 243 nM; in [2], 1 nM.
Regarding `O=C(CN1CC(CNCc2ccccc2)=CC[C@H](NC(=O)c2ccc3ccccc3c2)C1=O)N[C@H]1CC(=O)OC1O` (some centres undefined), the concentration for half-maximal inhibition (IC50) in data set [9] was greater than 10000 nM; in data set [11], 10000 nM; in data set [1], 232 nM; in [2] it was 7 nM.
On to `O=C(CN1CC(CNS(=O)(=O)c2ccccc2)=CC[C@H](NC(=O)c2ccc3ccccc3c2)C1=O)N[C@H]1CC(=O)OC1O` (some centres undefined), for which the IC50 in [9] is 6810 nM; in [11] it was 109 nM; in [1], 326 nM; in data set [2], 3 nM.
Taken in the same sequence, the figures for `COc1cccc(C(=O)N[C@H]2CC=CCN(CC(=O)N[C@H]3CC(=O)OC3O)C2=O)c1` (some centres undefined) were greater than 10000 nM, 1230 nM, 1230 nM and 53 nM.
On to `O=C(CN1CC(CO)=CC[C@H](NC(=O)c2ccc3ccccc3c2)C1=O)N[C@H]1CC(=O)OC1O` (some centres undefined), for which the IC50 was greater than 10000 nM in [9], 2110 nM in data set [11], 543 nM in [1] and 22 nM in data set [2].
Take `O=C[C@H](CC(=O)O)NC(=O)[C@@H]1CCCN2C(=O)CC[C@H](NC(=O)c3nccc4ccccc34)C(=O)N12` [VRT-18858]: the IC50 in data set [2] came out at 4 nM.
